The values that follow come from US20260083769A1, “2-Aminopropane-1,3-Diol-Capped Cationic Peptoids for Nucleic Acid Delivery” (NUTCRACKER THERAPEUTICS, INC., priority 2022, published 2026).

Series [1] in a line: RBC hemolysis as metric for fusogenicity. The series is classed as cell-based. The note with it: sheep red blood cells (RBCs), 5% v/v. The procedure:
RBC hemolysis was used as a metric for fusogenicity of LNPs at low pH. […] Particles were diluted to […] total lipid in well with 5% RBC solution and incubated at 37° C. for 45 min. Supernatant was collected and absorbance read on a microplate reader at 425 nm. Fusion was normalized to a fully lysed sample with 2% Triton™ and a buffer-only control. % hemolysis=100*[(ABS T-background)−(ABS sample-background)/(ABS T-background)].

The nature of series [2]: Percent encapsulated mRNA, RiboGreen assay. The series is classed as physicochemical. The procedure:
Percent encapsulation. The percentage of mRNA encapsulated within the delivery vehicle complexes containing Fluc mRNA was determined using a modified RiboGreen® assay. In general, formulated mRNA samples were diluted to 500 ng/ml in Tris-EDTA buffer with or without Triton-X™. RiboGreen® (Invitrogen) was added at a 200-fold dilution, and the plate was incubated for 5 minutes. Fluorescence was measured at Ex. […]/Em. 520 nm and encapsulated mRNA was calculated by taking the ratio of fluorescence for non-lysed particles versus lysed particles.
The mRNA concentration and the percentage of encapsulated mRNA were determined using a fluorescence-based Quant-iT™ RiboGreen® RNA Reagent Kit using a literature procedure. To determine the mRNA concentration, delivery vehicles were incubated with 2% Triton™ X-100 for 10 min to release entrapped mRNA, followed by addition of RiboGreen® RNA reagent. The fluorescence intensity of mRNA-RiboGreen® reagent complex (excitation at 485 nm and emission at 530 nm) was detected using a microplate reader. The ratio of fluorescence without and with Triton™ X-100 were used to calculate the percentage of encapsulated mRNA.

Series [3] in a line: Particle size and polydispersity (PDI) of delivery vehicles by dynamic light scattering. The class given is physicochemical. The procedure: The resulting delivery vehicle complexes were evaluated by dynamic light scattering (DLS) to determine the volume average particle size/diameter (nm) and the size polydispersity index (PDI) within the delivery vehicle complex.
Particle size. Particle sizes and size distributions were measured using a Wyatt DynaPro® Plate Reader III. In general, formulated samples were diluted to 2 ng/μL in 100 µL PBS. Data is reported as the hydrodynamic diameter (in nm) of the cumulant fit of the correlation function, and the polydispersity of that measurement.
In one particular instance, the size and polydispersity (PDI) of delivery vehicles was measured by dynamic light scattering in PBS using a DynaPro® plate reader III. The zeta potential of delivery vehicles was determined using Nano-ZS™ particle analyzer. Zeta sample was diluted to 30 uM total lipid in a weakly buffered solution of 10 mM HEPES, 10 mM MES, 10 mM ammonium acetate pH 7. Measurements were collected in duplicate for over 30 run with the voltage manually set to […]

Setting [4] is: Table 6, comparative peptoid delivery vehicle, pH 5, read-out: Hemolysis at pH 5.
The mark [5] stands for this setting: Table 6, comparative peptoid delivery vehicle, pH 7, read-out: Hemolysis at pH 7.
The mark [6] stands for this setting: Table 6, comparative peptoid delivery vehicle.
[7] abbreviates: Table 5, delivery vehicle comprising the peptoid, Formulation D22, fLuc mRNA.

Where two headings read alike, the source gives them in different places. Where a SMILES comes first, the peptide text is derived from it. [ ]: non-standard residue; d: D form. Gly(Nα-oleyl) = CCCCCCCC/C=C\CCCCCCCCNCC(=O)O; Gly(N-dodecyl) = CCCCCCCCCCCCNCC(=O)O; N(CH(CH2OH)2)Gly = O=C(O)CNC(CO)CO; N(octyl)Gly = CCCCCCCCNCC(=O)O; NDecylGly = CCCCCCCCCCNCC(=O)O; NHexGly = CCCCCCNCC(=O)O

Take `CCCCCCCCCCCCN(CC(N)=O)C(=O)CN(CCCCCCCCCCCC)C(=O)CN(CCCCCCCCCCCC)C(=O)CN(CCCCCCCCCCCC)C(=O)CNCCCO` [Compound C2, reference compound]: the hemolysis at 45 min, 150 mM total lipid in series [1] (setting [4]) is 10.6%; in series [1] (setting [5]), 37.2%. Besides, in series [2] (setting [6]), the “% Encapsulation” value is recorded as 92.2%. In addition, the PDI in series [3] (setting [6]) is listed as 0.179. For the same compound, in series [3] (setting [6]), the “Particle Size (nm)” value was found to be 67.0 nm.
As to `CCCCCCCCCCN(CC(N)=O)C(=O)CN(CCCCCCCC)C(=O)CN(CCCCCCCC)C(=O)CN(CCCCCCCCCC)C(=O)CN(CCCCCCCC)C(=O)CN(CCCCCCCC)C(=O)CNC(CO)CO` [Compound 26] (H-[N(CH(CH2OH)2)Gly][N(octyl)Gly][N(octyl)Gly][NDecylGly][N(octyl)Gly][N(octyl)Gly][NDecylGly]-NH2), the “% Encapsulation” value in series [2] (setting [7]) is listed as 66.1%. For the same compound, in series [3] (setting [7]), the PDI result was “Multimodal” and the “Particle Size (nm)” value came to 421.9 nm.
On to `CCCCCCCCCCCCN(CC(N)=O)C(=O)CN(CCCCCCCCCCCC)C(=O)CN(CCCCCCCCCCCC)C(=O)CN(CCCCCCCCCCCC)C(=O)CN(CCO)CCO` [Compound C4, reference compound], for which, in series [1] (setting [4]), the hemolysis at 45 min, 150 mM total lipid was found to be 4.9%. In addition, in series [1] (setting [5]), the hemolysis at 45 min, 150 mM total lipid is 12%. The “% Encapsulation” value in series [2] (setting [6]) is reported as 90.5%. Further, in series [3] (setting [6]), the PDI was found to be 0.186 and the “Particle Size (nm)” value stood at 67.7 nm.
The matching figures for `CCCCCCCCCCCCN(CC(N)=O)C(=O)CN(CCCCCCCCCCCC)C(=O)CN(CCCCCCCCCCCC)C(=O)CN(CCCCCCCCCCCC)C(=O)CN(CC)CCO` [Compound C12, reference compound]: -2.4%, 3.9%, 95.9%, 0.175 and 62.4 nm.
For `CCCCCCCCCCCCN(CC(N)=O)C(=O)CN(CCCCCCCCCCCC)C(=O)CN(CCCCCCCCCCCC)C(=O)CN(CCCCCCCCCCCC)C(=O)CNCCCOC` [Compound C7, reference compound], in series [1] (setting [4]), the hemolysis at 45 min, 150 mM total lipid was 31.6%. Further, in series [1] (setting [5]), the hemolysis at 45 min, 150 mM total lipid is 65.5%. For the same compound, the “% Encapsulation” value in series [2] (setting [6]) is 93.1%. Besides, in series [3] (setting [6]), the PDI was 0.219 and the “Particle Size (nm)” value is on record as 71.3 nm.
In the case of `CCCCCCCCCCCCN(CC(N)=O)C(=O)CN(CCCCCCCCCCCC)C(=O)CN(CCCCCCCCCCCC)C(=O)CN(CCCCCCCCCCCC)C(=O)CNCCN` [Compound C1, reference compound], the values for the hemolysis at 45 min, 150 mM total lipid in series [1] (setting [4]) and in series [1] (setting [5]) were -15.1% and 39.2%, respectively. Moreover, in series [2] (setting [6]), the “% Encapsulation” value is reported as 86.6%. The compound also had a PDI in series [3] (setting [6]) of 0.206. Moreover, the “Particle Size (nm)” value in series [3] (setting [6]) is 61.3 nm.
Turning to `CCCCCCCCN(CC(=O)N(CCCCCCCC)CC(=O)N(CCCCCC)CC(=O)N(CCCCCCCC)CC(=O)N(CCCCCCCC)CC(=O)N(CCCCCC)CC(N)=O)C(=O)CNC(CO)CO` [Compound 25] (H-[N(CH(CH2OH)2)Gly][N(octyl)Gly][N(octyl)Gly][NHexGly][N(octyl)Gly][N(octyl)Gly][NHexGly]-NH2), the hemolysis at 45 min, 150 mM total lipid in series [1] (Table 5, delivery vehicle, 37° C. 45 min, pH 5, read-out: Hemolysis at pH 5) was found to be 94.6%. The hemolysis at 45 min, 150 mM total lipid in series [1] (Table 5, delivery vehicle, 37° C. 45 min, pH 7, read-out: Hemolysis at pH 7) came out at 94.7%. Moreover, the “% Encapsulation” value in series [2] (setting [7]) worked out at 24.3%. Moreover, in series [3] (setting [7]), the PDI entry is “Multimodal” and the “Particle Size (nm)” value came to 2220.3 nm.
Take `CCCCCCCCCCCCN(CC(N)=O)C(=O)CN(CCCCCCCCCCCC)C(=O)CN(CCCCCCCCCCCC)C(=O)CN(CCCCCCCCCCCC)C(=O)CNCCO` [Compound C3, reference compound]: in series [1] (setting [4]), the hemolysis at 45 min, 150 mM total lipid was 24.4%. Also, the hemolysis at 45 min, 150 mM total lipid in series [1] (setting [5]) was found to be 51.1%. The “% Encapsulation” value in series [2] (setting [6]) is 87.5%. In series [3] (setting [6]), the PDI came to 0.196 and the “Particle Size (nm)” value turned out to be 65.3 nm.
The matching figures for `CCCCCCCCCCCCN(CC(N)=O)C(=O)CN(CCCCCCCCCCCC)C(=O)CN(CCCCCCCCCCCC)C(=O)CN(CCCCCCCCCCCC)C(=O)CNCCCn1ccnc1` [Compound C8, reference compound]: 2.3%, 8.1%, 93.5%, 0.192 and 60.2 nm.
For `CCCCCCCCCCCCN(CC(=O)N(CC(=O)N(CCCCCCCCCCCC)CC(=O)N(CC(N)=O)CC(CC)CCCC)CC(CC)CCCC)C(=O)CNC(CO)CO` (centres unmarked) [Compound 23], the “% Encapsulation” value in series [2] (setting [7]) stood at 2.3%. In addition, in series [3] (setting [7]), the PDI entry is “Multimodal” and the “Particle Size (nm)” value came out at 1269.5 nm.
Regarding `CCCCCCCCCCCCN(CC(N)=O)C(=O)CN(CCCCCCCCCCCC)C(=O)CN(CCCCCCCCCCCC)C(=O)CN(CCCCCCCCCCCC)C(=O)CNCCCN1CCOCC1` [Compound C10, reference compound], the figures for the hemolysis at 45 min, 150 mM total lipid in series [1] (setting [4]) and in series [1] (setting [5]) were 0.6% and 1%, respectively. In addition, the “% Encapsulation” value in series [2] (setting [6]) is 86.6%. Moreover, the PDI in series [3] (setting [6]) worked out at 0.520. The “Particle Size (nm)” value in series [3] (setting [6]) stood at 84.6 nm.
The matching figures for `CCCCCCCCCCCCN(CC(N)=O)C(=O)CN(CCCCCCCCCCCC)C(=O)CN(CCCCCCCCCCCC)C(=O)CN(CCCCCCCCCCCC)C(=O)CNCCCN` [Compound C5, reference compound]: -15.6%, 39.8%, 97.5%, 0.135 and 57.3 nm.
On to `CCCCCCCCN(CC(N)=O)C(=O)CN(CCCCCCCC)C(=O)CN(CCCCCCCC)C(=O)CN(CC(CC)CCCC)C(=O)CN(CCCCCCCC)C(=O)CN(CCCCCCCC)C(=O)CN(CCCCCCCC)C(=O)CN(CC(CC)CCCC)C(=O)CNC(CO)CO` (centres unmarked) [Compound 11], for which the “% Encapsulation” value in series [2] (setting [7]) is given as 66.1%. Also, in series [3] (setting [7]), the PDI was found to be 0.111 and the “Particle Size (nm)” value is listed as 106.6 nm.
For the compound `CCCCCCCCCCCCN(CC(N)=O)C(=O)CN(CCCCCCCCCCCC)C(=O)CN(CCCCCCCCCCCC)C(=O)CN(CCCCCCCCCCCC)C(=O)CNCCOC` [Compound C6, reference compound], in series [1] (setting [4]), the hemolysis at 45 min, 150 mM total lipid was found to be 4.9%. The hemolysis at 45 min, 150 mM total lipid in series [1] (setting [5]) worked out at 22.7%. Further, the “% Encapsulation” value in series [2] (setting [6]) worked out at 92.6%. In series [3] (setting [6]), the PDI is 0.223 and the “Particle Size (nm)” value is 67.1 nm.
The matching figures for `CCCCCCCCCCCCN(CC(N)=O)C(=O)CN(CCCCCCCCCCCC)C(=O)CN(CCCCCCCCCCCC)C(=O)CN(CCCCCCCCCCCC)C(=O)CNCCCn1ccnc1C` [Compound C9, reference compound]: 0.7%, 2.4%, 98.8%, 0.201 and 63.0 nm.
The matching figures for `CCCCCCCCCCCCN(CC(N)=O)C(=O)CN(CCCCCCCCCCCC)C(=O)CN(CCCCCCCCCCCC)C(=O)CN(CCCCCCCCCCCC)C(=O)CNCCCN1CCCCC1` [Compound C11, reference compound]: 9.6%, 10.2%, 92.4%, 0.179 and 70.2 nm.
For `CCCCCCCCCCN(CC(=O)N(CCCCCC)CC(N)=O)C(=O)CN(CCCCCCCC)C(=O)CN(CCCCCC)C(=O)CN(CCCCCCCCCC)C(=O)CN(CCCCCCCC)C(=O)CNC(CO)CO` [Compound 32] (H-[N(CH(CH2OH)2)Gly][N(octyl)Gly][NDecylGly][NHexGly][N(octyl)Gly][NDecylGly][NHexGly]-NH2), the “% Encapsulation” value in series [2] (setting [7]) came to 23.3%. In series [3] (setting [7]), the PDI result was “Multimodal” and the “Particle Size (nm)” value was determined as 692.4 nm.
The matching figures for `CCCCCCCC/C=C\CCCCCCCCN(CC(=O)N(CCCCCCCCCCCC)CC(N)=O)C(=O)CN(CCCCCCCCCCCC)C(=O)CNC(CO)CO` [Compound 4] (H-[N(CH(CH2OH)2)Gly][Gly(N-dodecyl)][Gly(Nα-oleyl)][Gly(N-dodecyl)]-NH2): 12.3%, “Multimodal” and 631.3 nm.
